Paper PMC7488488 (Acta Pharmaceutica Sinica. B, 2019)

Experiments:
MDM2 = MDM2 (Homo sapiens, UniProt Q00987); test: TR-FRET; format: binding; settings: for inhibition at 1 µM: read-out: Inhibition rate at 1.0 μmol/L, MDM2
U87MG cells = test: MTT cell proliferation assay; format: cell-based; settings: Homo sapiens, U-87 MG, 24 h, read-out: Anti-proliferative activity IC50, U87MG
U251 cells = test: MTT cell proliferation assay; format: cell-based; settings: Homo sapiens, U-251, 24 h, read-out: Anti-proliferative activity IC50, U251
T98G cells = test: MTT cell proliferation assay; format: cell-based; settings: Homo sapiens, T98G, 24 h, read-out: Anti-proliferative activity IC50, T98G

Sequence of MDM2 (Q00987 whole entry): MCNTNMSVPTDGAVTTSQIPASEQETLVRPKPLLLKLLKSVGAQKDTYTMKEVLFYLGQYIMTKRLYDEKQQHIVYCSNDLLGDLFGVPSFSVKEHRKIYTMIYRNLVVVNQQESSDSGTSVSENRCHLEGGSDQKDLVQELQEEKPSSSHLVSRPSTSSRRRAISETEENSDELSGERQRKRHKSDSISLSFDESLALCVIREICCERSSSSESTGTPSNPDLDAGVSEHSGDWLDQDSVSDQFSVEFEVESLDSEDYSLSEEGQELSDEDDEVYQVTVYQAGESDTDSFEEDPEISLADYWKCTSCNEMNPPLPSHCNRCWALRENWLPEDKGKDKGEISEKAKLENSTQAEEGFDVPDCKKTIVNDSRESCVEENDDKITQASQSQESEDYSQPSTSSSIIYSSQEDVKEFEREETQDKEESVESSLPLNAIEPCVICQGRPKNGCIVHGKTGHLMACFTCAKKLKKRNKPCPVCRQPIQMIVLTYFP

SMILES: CCOC(=O)[C@H]1Cc2c(cc([N+](=O)[O-])cc2[N+](=O)[O-])[C@@H](O)[C@@]12C(=O)Nc1ccc(Cl)cc12 [4d, Ethyl (1′R,3R,3′S)-5-chloro-1′-hydroxy-5′,7′-dinitro-2-oxo-3′,4′-dihydro-1′H-spiro[indoline-3,2′-naphthalene]-3′-carboxylate]
- IC50 (MDM2): 0.52 ± 0.07 µM
- inhibition at 1 µM (MDM2): 82.6 ± 8.4%
- IC50 (U87MG cells): 8.3 ± 1.5 µM
- IC50 (U251 cells): 17.8 ± 3.2 µM
- IC50 (T98G cells): 21.6 ± 4.5 µM

SMILES: O=C(c1ccc(F)cc1)[C@H]1Cc2c(cc([N+](=O)[O-])cc2[N+](=O)[O-])[C@H](O)[C@]12C(=O)Nc1ccccc12 [4m′, (1′S,3S,3′S)-3′-(4-Fluorobenzoyl)-1′-hydroxy-5′,7′-dinitro-3′,4′-dihydro-1′H-spiro[indoline-3,2′-naphthalen]-2-one]
- inhibition at 1 µM (MDM2): 36.2%
- IC50 (U87MG cells): > 50 µM
- IC50 (U251 cells): > 50 µM
- IC50 (T98G cells): > 50 µM

SMILES: CCOC(=O)[C@H]1Cc2c(cc([N+](=O)[O-])cc2[N+](=O)[O-])[C@@H](O)[C@@]12C(=O)Nc1ccc(F)cc12 [4b, Ethyl (1′R,3R,3′S)-5-fluoro-1′-hydroxy-5′,7′-dinitro-2-oxo-3′,4′-dihydro-1′H-spiro[indoline-3,2′-naphthalene]-3′-carboxylate]
- inhibition at 1 µM (MDM2): 81.4 ± 10.2%
- IC50 (U87MG cells): 25.7 ± 1.4 µM
- IC50 (U251 cells): 32.6 ± 3.5 µM
- IC50 (T98G cells): 49 ± 6.3 µM

SMILES: O=C(c1ccc(Cl)c(Cl)c1)[C@H]1Cc2c(cc([N+](=O)[O-])cc2[N+](=O)[O-])[C@H](O)[C@]12C(=O)Nc1ccccc12 [4n′, (1′S,3S,3′S)-3′-(3,4-Dichlorobenzoyl)-1′-hydroxy-5′,7′-dinitro-3′,4′-dihydro-1′H-spiro[indoline-3,2′-naphthalen]-2-one]
- inhibition at 1 µM (MDM2): 36.3%
- IC50 (U87MG cells): > 50 µM
- IC50 (U251 cells): > 50 µM
- IC50 (T98G cells): > 50 µM

SMILES: O=C(c1ccccc1F)[C@H]1Cc2c(cc([N+](=O)[O-])cc2[N+](=O)[O-])[C@H](O)[C@]12C(=O)Nc1ccccc12 [4l′, (1′S,3S,3′S)-3′-(2-Fluorobenzoyl)-1′-hydroxy-5′,7′-dinitro-3′,4′-dihydro-1′H-spiro[indoline-3,2′-naphthalen]-2-one]
- inhibition at 1 µM (MDM2): 31.6%
- IC50 (U87MG cells): > 50 µM
- IC50 (U251 cells): > 50 µM
- IC50 (T98G cells): > 50 µM

SMILES: O=C(c1ccc(Br)cc1)[C@H]1Cc2c(cc([N+](=O)[O-])cc2[N+](=O)[O-])[C@H](O)[C@]12C(=O)Nc1ccccc12 [4o′, (1′S,3S,3′S)-3′-(4-Bromobenzoyl)-1′-hydroxy-5′,7′-dinitro-3′,4′-dihydro-1′H-spiro[indoline-3,2′-naphthalen]-2-one]
- inhibition at 1 µM (MDM2): 29%
- IC50 (U87MG cells): > 50 µM
- IC50 (U251 cells): > 50 µM
- IC50 (T98G cells): > 50 µM

SMILES: CCOC(=O)[C@H]1Cc2c(cc([N+](=O)[O-])cc2[N+](=O)[O-])[C@@H](O)[C@@]12C(=O)Nc1ccc([N+](=O)[O-])cc12 [4i, Ethyl (1′R,3R,3′S)-1′-hydroxy-5,5′,7′-trinitro-2-oxo-3′,4′-dihydro-1′H-spiro[indoline-3,2′-naphthalene]-3′-carboxylate]
- inhibition at 1 µM (MDM2): 47.7 ± 4.1%
- IC50 (U87MG cells): 25.6 ± 2.8 µM
- IC50 (U251 cells): 36.2 ± 4.6 µM
- IC50 (T98G cells): 41.2 ± 6.1 µM

SMILES: O=C(c1ccc(F)cc1)[C@H]1Cc2c(cc([N+](=O)[O-])cc2[N+](=O)[O-])[C@@H](O)[C@@]12C(=O)Nc1ccccc12 [4m, (1′R,3R,3′S)-3′-(4-Fluorobenzoyl)-1′-hydroxy-5′,7′-dinitro-3′,4′-dihydro-1′H-spiro[indoline-3,2′-naphthalen]-2-one]
- inhibition at 1 µM (MDM2): 44.6 ± 3.7%
- IC50 (U87MG cells): 47.2 ± 3.8 µM
- IC50 (U251 cells): 39.5 ± 3.8 µM
- IC50 (T98G cells): 37.1 ± 3.2 µM

SMILES: COc1ccc(C(=O)[C@H]2Cc3c(cc([N+](=O)[O-])cc3[N+](=O)[O-])[C@H](O)[C@]23C(=O)Nc2ccccc23)cc1 [4p′, (1′S,3S,3′S)-1′-Hydroxy-3′-(4-methoxybenzoyl)-5′,7′-dinitro-3′,4′-dihydro-1′H-spiro[indoline-3,2′-naphthalen]-2-one]
- inhibition at 1 µM (MDM2): 26.9%
- IC50 (U87MG cells): > 50 µM
- IC50 (U251 cells): > 50 µM
- IC50 (T98G cells): > 50 µM

SMILES: CCOC(=O)[C@H]1Cc2c(cc([N+](=O)[O-])cc2[N+](=O)[O-])[C@@H](O)[C@@]12C(=O)Nc1cccc(Br)c12 [4f, Ethyl (1′R,3R,3′S)-4-bromo-1′-hydroxy-5′,7′-dinitro-2-oxo-3′,4′-dihydro-1′H-spiro[indoline-3,2′-naphthalene]-3′-carboxylate]
- inhibition at 1 µM (MDM2): 66.9 ± 9.1%
- IC50 (U87MG cells): 20.7 ± 3.5 µM
- IC50 (U251 cells): 25.8 ± 4.2 µM
- IC50 (T98G cells): 27.2 ± 3 µM

SMILES: COc1ccc(C(=O)[C@H]2Cc3c(cc([N+](=O)[O-])cc3[N+](=O)[O-])[C@@H](O)[C@@]23C(=O)Nc2ccccc23)cc1 [4p, (1′R,3R,3′S)-1′-Hydroxy-3′-(4-methoxybenzoyl)-5′,7′-dinitro-3′,4′-dihydro-1′H-spiro[indoline-3,2′-naphthalen]-2-one]
- inhibition at 1 µM (MDM2): 35.7 ± 4.9%
- IC50 (U87MG cells): 39.9 ± 4.2 µM
- IC50 (U251 cells): 43.2 ± 5.9 µM
- IC50 (T98G cells): 45.9 ± 8.1 µM

SMILES: O=C(c1ccccc1)[C@H]1Cc2c(cc([N+](=O)[O-])cc2[N+](=O)[O-])[C@@H](O)[C@@]12C(=O)Nc1ccccc12 [4k, (1′R,3R,3′S)-3′-Benzoyl-1′-hydroxy-5′,7′-dinitro-3′,4′-dihydro-1′H-spiro[indoline-3,2′-naphthalen]-2-one]
- inhibition at 1 µM (MDM2): 46.4 ± 4.9%
- IC50 (U87MG cells): 38.7 ± 6.5 µM
- IC50 (U251 cells): 53.8 ± 9 µM
- IC50 (T98G cells): 43.7 ± 6.6 µM

SMILES: CCOC(=O)[C@H]1Cc2c(cc([N+](=O)[O-])cc2[N+](=O)[O-])[C@H](O)[C@]12C(=O)Nc1c(F)cccc12 [4c′, Ethyl (1′S,3S,3′S)-7-fluoro-1′-hydroxy-5′,7′-dinitro-2-oxo-3′,4′-dihydro-1′H-spiro[indoline-3,2′-naphthalene]-3′-carboxylate]
- inhibition at 1 µM (MDM2): 45.3%
- IC50 (U87MG cells): 59.9 µM
- IC50 (U251 cells): > 50 µM
- IC50 (T98G cells): > 50 µM

SMILES: O=C(c1ccc(Cl)c(Cl)c1)[C@H]1Cc2c(cc([N+](=O)[O-])cc2[N+](=O)[O-])[C@@H](O)[C@@]12C(=O)Nc1ccccc12 [4n, (1′R,3R,3′S)-3′-(3,4-Dichlorobenzoyl)-1′-hydroxy-5′,7′-dinitro-3′,4′-dihydro-1′H-spiro[indoline-3,2′-naphthalen]-2-one]
- inhibition at 1 µM (MDM2): 38.4 ± 2.7%
- IC50 (U87MG cells): 34.9 ± 2.62 µM
- IC50 (U251 cells): 25.9 ± 3.5 µM
- IC50 (T98G cells): 32.5 ± 2.9 µM

SMILES: CCOC(=O)[C@H]1Cc2c(cc([N+](=O)[O-])cc2[N+](=O)[O-])[C@@H](O)[C@@]12C(=O)Nc1cc(Cl)ccc12 [4e, Ethyl (1′R,3R,3′S)-6-chloro-1′-hydroxy-5′,7′-dinitro-2-oxo-3′,4′-dihydro-1′H-spiro[indoline-3,2′-naphthalene]-3′-carboxylate]
- inhibition at 1 µM (MDM2): 76.4 ± 6%
- IC50 (U87MG cells): 19.2 ± 4.4 µM
- IC50 (U251 cells): 28.6 ± 2.9 µM
- IC50 (T98G cells): 22.5 ± 4.2 µM

SMILES: O=C(c1ccc(Br)cc1)[C@H]1Cc2c(cc([N+](=O)[O-])cc2[N+](=O)[O-])[C@@H](O)[C@@]12C(=O)Nc1ccccc12 [4o, (1′R,3R,3′S)-3′-(4-Bromobenzoyl)-1′-hydroxy-5′,7′-dinitro-3′,4′-dihydro-1′H-spiro[indoline-3,2′-naphthalen]-2-one]
- inhibition at 1 µM (MDM2): 47.1 ± 5.8%
- IC50 (U87MG cells): 41.6 ± 4.3 µM
- IC50 (U251 cells): 44.2 ± 4.6 µM
- IC50 (T98G cells): 45.7 ± 6.7 µM

SMILES: CCOC(=O)[C@H]1Cc2c(cc([N+](=O)[O-])cc2[N+](=O)[O-])[C@@H](O)[C@@]12C(=O)Nc1ccc(C)cc12 [4j, Ethyl (1′R,3R,3′S)-1′-hydroxy-5-methyl-5′,7′-dinitro-2-oxo-3′,4′-dihydro-1′H-spiro[indoline-3,2′-naphthalene]-3′-carboxylate]
- inhibition at 1 µM (MDM2): 64.4 ± 7.2%
- IC50 (U87MG cells): 31.1 ± 1.76 µM
- IC50 (U251 cells): 38.9 ± 4.5 µM
- IC50 (T98G cells): 39.3 ± 3.6 µM

SMILES: CCOC(=O)[C@H]1Cc2c(cc([N+](=O)[O-])cc2[N+](=O)[O-])[C@H](O)[C@]12C(=O)Nc1cc(Br)ccc12 [4h′, Ethyl (1′S,3S,3′S)-6-bromo-1′-hydroxy-5′,7′-dinitro-2-oxo-3′,4′-dihydro-1′H-spiro[indoline-3,2′-naphthalene]-3′-carboxylate]
- inhibition at 1 µM (MDM2): 61.2%
- IC50 (U87MG cells): 47.6 µM
- IC50 (U251 cells): > 50 µM
- IC50 (T98G cells): > 50 µM

SMILES: O=C(c1ccccc1F)[C@H]1Cc2c(cc([N+](=O)[O-])cc2[N+](=O)[O-])[C@@H](O)[C@@]12C(=O)Nc1ccccc12 [4l, (1′R,3R,3′S)-3′-(2-Fluorobenzoyl)-1′-hydroxy-5′,7′-dinitro-3′,4′-dihydro-1′H-spiro[indoline-3,2′-naphthalen]-2-one]
- inhibition at 1 µM (MDM2): 47.2 ± 5.71%
- IC50 (U87MG cells): 32.5 ± 4.7 µM
- IC50 (U251 cells): 38.7 ± 6.1 µM
- IC50 (T98G cells): 43.6 ± 4.8 µM

SMILES: CCOC(=O)[C@H]1Cc2c(cc([N+](=O)[O-])cc2[N+](=O)[O-])[C@H](O)[C@]12C(=O)Nc1ccc(Cl)cc12 [4d′, Ethyl (1′S,3S,3′S)-5-chloro-1′-hydroxy-5′,7′-dinitro-2-oxo-3′,4′-dihydro-1′H-spiro[indoline-3,2′-naphthalene]-3′-carboxylate]
- IC50 (MDM2): 1.8 ± 0.12 µM
- inhibition at 1 µM (MDM2): 54.2%
- IC50 (U87MG cells): 60.4 µM
- IC50 (U251 cells): > 50 µM
- IC50 (T98G cells): > 50 µM

SMILES: CCOC(=O)[C@H]1Cc2c(cc([N+](=O)[O-])cc2[N+](=O)[O-])[C@H](O)[C@]12C(=O)Nc1ccc([N+](=O)[O-])cc12 [4i′, Ethyl (1′S,3S,3′S)-1′-hydroxy-5,5′,7′-trinitro-2-oxo-3′,4′-dihydro-1′H-spiro[indoline-3,2′-naphthalene]-3′-carboxylate]
- inhibition at 1 µM (MDM2): 39.3%
- IC50 (U87MG cells): 47.9 µM
- IC50 (U251 cells): > 50 µM
- IC50 (T98G cells): > 50 µM

SMILES: CCOC(=O)[C@H]1Cc2c(cc([N+](=O)[O-])cc2[N+](=O)[O-])[C@H](O)[C@]12C(=O)Nc1ccc(Br)cc12 [4g′, Ethyl (1′S,3S,3′S)-5-bromo-1′-hydroxy-5′,7′-dinitro-2-oxo-3′,4′-dihydro-1′H-spiro[indoline-3,2′-naphthalene]-3′-carboxylate]
- IC50 (MDM2): 2.5 ± 0.3 µM
- inhibition at 1 µM (MDM2): 51.9%
- IC50 (U87MG cells): > 50 µM
- IC50 (U251 cells): > 50 µM
- IC50 (T98G cells): > 50 µM

SMILES: CCOC(=O)[C@H]1Cc2c(cc([N+](=O)[O-])cc2[N+](=O)[O-])[C@H](O)[C@]12C(=O)Nc1ccc(C)cc12 [4j′, Ethyl (1′S,3S,3′S)-1′-hydroxy-5-methyl-5′,7′-dinitro-2-oxo-3′,4′-dihydro-1′H-spiro[indoline-3,2′-naphthalene]-3′-carboxylate]
- inhibition at 1 µM (MDM2): 49.2%
- IC50 (U87MG cells): > 50 µM
- IC50 (U251 cells): > 50 µM
- IC50 (T98G cells): > 50 µM
